# From PMC9323266, “Competitive Metabolism of Polycyclic Aromatic Hydrocarbons (PAHs): An Assessment Using In Vitro Metabolism and Physiologically Based Pharmacokinetic (PBPK) Modeling” (International Journal of Environmental Research and Public …, 2022)
# Where two headings read alike, the source gives them in different places.
# Assays:
# CYP3A4 = details: Supersomes expressing human CYPs; cited from earlier work
# human hepatic microsomes = assay: In vitro metabolism (substrate disappearance) in pooled human liver microsomes; assay type: in vitro ADME; details: human hepatic microsomes
# Experimental: (§1) Pooled human liver microsome samples were obtained from Sekisui Xenotech, LLC (Kansas City, KS, USA). Pooled samples contained contributions from 200 individuals having equal male:female ratio and predominantly from humans between 19 and 78 years of age (3 individuals 10–18 years old).
# (§2) Briefly, within 500 µL total volume, reactions consisted of MgCl2 (3 mM), microsomes (2.0 mg/mL), 0.1 M phosphate buffer (pH 7.4), and excess NADPH (1.5 mM). Control samples using inactivated microsomes absent of NADPH were also included. Microsomes were preactivated via 37 °C incubation on a thermal shaker for 5 min. […] Samples were incubated at 37 °C for 0–30 min or 0–60 min, respectively. Reactions were quenched by adding 500 µL 0.9 M H2SO4, and samples were immediately placed on ice until extraction. A standard curve was prepared (0.015 µM–25.0 µM) in inactivated microsomes. An internal standard was added to each quenched sample (DBC for BaP kinetics reactions and BaP for DBC kinetics reactions). Experiments were performed in triplicate.
# (§3) Analytes were extracted from samples with liquid–liquid extraction and measured using high-performance liquid chromatography (HPLC). First, BaP, DBC, or retene was added as an internal standard depending on incubations conditions being tested. Samples were extracted using three 500 µL volumes of ethyl acetate. Extracts were dried under a gentle stream of nitrogen and resolubilized in 500 µL methanol. Analytes were quantified by reverse phase HPLC using an Agilent 1260 Infinity HPLC system equipped with an Agilent G4290B variable wavelength detector and an Agilent G1321B SPECTRA fluorescence detector (Santa Clara, CA, USA). Sample (10 µL) was injected into an Ascentis 25 cm × 4.6 mm, 5 µm C18 column (Sigma-Aldrich, St. Louis, MO, USA). A gradient of water and acetonitrile from 55:45 to 0:100 was employed from 0 to 10 min and then was held at 100% acetonitrile until 22 min at a flow rate of 0.95 mL/min. […] Excitation and emission wavelengths were 230 nm and 430 nm, respectively. […] Quantification was accomplished using a linear regression fit to an external calibration curve prepared in tandem with samples.
# (§4) As with previous in vitro PAH metabolism studies conducted in our lab, metabolism rates were calculated based on substrate disappearance. […] Confidence intervals of metabolism rates were calculated using a nonparametric bootstrap, where metabolism rates were resampled with replacement at each concentration, and the regression was repeated on the resampled dataset (n = 1000).
# (§5) These two models include a Michaelis–Menten clearance equation for non-saturable high-capacity/low-affinity enzymes (Equation (2)) and a double Michaelis–Menten equation for saturable high-capacity/low-affinity enzymes (Equation (3)). Models were optimized using a maximum likelihood objective. The Bayesian information criterion (BIC) was used to judge the best-fit model for evaluating metabolism. For Michaelis–Menten kinetics, intrinsic clearance values (Clint) of the first order phase were estimated by dividing the Vmax by the respective Km. Fit parameter confidence intervals were calculated using a parametric bootstrap (n = 1000), where each best fit model was re-optimized to sampled metabolic rates assuming a normal distribution at each […]:(1) dS/dt=Vmax×S/Km+S (2) dS/dt=Vmax1×S/Km1+S+Clint2×S (3) dS/dt=Vmax1×S/Km1+S+Vmax2×S/Km2+S
# [1] = as above; assay type: in vitro ADME; details: both sexes; for microsomal CLint: human, microsomes, pH 7.4, human hepatic microsomes
# Experimental: as §1, §2, §3, §4, §5
# CYP1A1 and CYP2C19 = details: Supersomes expressing human CYPs; cited from earlier work
# [2] = set-up: method as in PMID 34933053; details: cited from earlier work
# [3] = biological target: dibenzo[def,p]chrysene (DBC) metabolism in human hepatic microsomes; assay: Competitive inhibition of DBC metabolism in human hepatic microsomes; assay type: in vitro ADME; details: substrate DBC 0.17 µM initial, human hepatic microsomes, apparent Ki, Equation (4); read-out: Inhibition constant (Ki) of competitive inhibitor to DBC metabolism
# Experimental: (§6) Competitive inhibition of PAH metabolism was measured using conditions described above. […] Each experimental condition (e.g., substrate, concentration, time point, etc.) was conducted in triplicate.
# (§7) Analytes were extracted from samples with liquid–liquid extraction and measured using high-performance liquid chromatography (HPLC). First, BaP, DBC, or retene was added as an internal standard depending on incubations conditions being tested. Samples were extracted using three 500 µL volumes of ethyl acetate. Extracts were dried under a gentle stream of nitrogen and resolubilized in 500 µL methanol. Analytes were quantified by reverse phase HPLC using an Agilent 1260 Infinity HPLC system equipped with an Agilent G4290B variable wavelength detector and an Agilent G1321B SPECTRA fluorescence detector (Santa Clara, CA, USA). […] Quantification was accomplished using a linear regression fit to an external calibration curve prepared in tandem with samples.
# as §4, with “1000). […]” for “1000).”
# [4] = test system: DBC metabolism in human hepatic microsomes; assay: as above; assay type: in vitro ADME; details: both sexes, human, pH 7.4
# Experimental: as §6, §7
# as §4, with “1000). […]” for “1000).”
# [5] = test system: benzo[a]pyrene (BaP) metabolism in human hepatic microsomes; assay: Competitive inhibition of BaP metabolism in human hepatic microsomes; assay type: in vitro ADME
# Experimental: as §6, §7
# as §4, with “1000). […]” for “1000).”
# [6] = cited from earlier work; for Carcinogenic (classifying agencies): classified as Suspected, Possible, Probable, or Confirmed carcinogen in animal models or humans by EPA, IARC or ACGIH
# [7] = Michaelis-Menten clearance model fit, high-affinity/low-capacity enzyme
compound,measurement,setting,value
"c1ccc2c(c1)cc1ccc3cccc4ccc2c1c34 [BaP, benzo[a]pyrene]",Share of 3-hydroxy-BaP produced by CYP3A4,CYP3A4,53%
same,Intrinsic clearance compared to that of DBC,human hepatic microsomes,nearly five-fold faster
same,Vmax1,human hepatic microsomes; [7],0.0063 nmol/min/mg Micro
same,microsomal CLint,"[1]; first order phase, Vmax divided by Km, read-out: Clint 1",72 µL/min/mg
same,microsomal CLint,"[1]; non-saturable low-affinity/high-capacity enzyme, read-out: Clint 2",1.2 µL/min/mg
same,Km,"[1]; pH 7.4, human hepatic microsomes, Michaelis-Menten clearance model fit, high-affinity/low-capacity enzyme, read-out: Km 1",88 nM
same,"Share of BaP-7,8-diol produced by CYP1A1 and CYP2C19",CYP1A1 and CYP2C19,96%
same,log Kow,[2],6.13
same,Ki,[3],61 nM
same,inhibition at 1 µM,[4],62%
"c1ccc2c(c1)cc1ccc3cccc4c5ccccc5c2c1c34 [DBC, dibenzo[def,p]chrysene]",Inhibition of the rate of BaP metabolism,"[5]; inhibitor ≥1 µM, 0.14 µM BaP initial substrate concentration",≥ 48%
same,Ki,"[5]; read-out: Inhibition constant (Ki) of competitive inhibitor to BaP metabolism, substrate BaP 0.14-0.18 µM initial, human hepatic microsomes, apparent Ki, Equation (4)",440 nM
same,Relative Potency Factor,[6]; cancer potency relative to BaP index compound,30
same,"Rates of metabolism, times slower than rates of BaP metabolism",human hepatic microsomes,3–5 times
same,Vmax1,human hepatic microsomes; [7],0.0009 nmol/min/mg Micro
same,Km,"human hepatic microsomes; Michaelis-Menten clearance model fit, high-affinity/low-capacity enzyme, read-out: Km 1",60 nM
same,Clint 1,"human hepatic microsomes; first order phase, Vmax divided by Km",0.015 mL/min
same,Clint 2,human hepatic microsomes; non-saturable low-affinity/high-capacity enzyme,0.0017 mL/min
same,log Kow,[2],7.71
c1ccc2cc3c(ccc4ccccc43)cc2c1 [benzo(a)anthracene],Carcinogenic (classifying agencies),[6],"EPA, IARC, ACGIH"
c1ccc2c(c1)ccc1c3ccccc3ccc21 [chrysene],Carcinogenic (classifying agencies),[6],"EPA, ACGIH"
c1ccc2ccccc2c1 [naphthalene],Carcinogenic (classifying agencies),[6],"EPA, IARC, ACGIH"
